# Assay results taken from the supplement of paper PMC12076712.
# Tests used:
# Experiment in all cases: pIC50, kinobeads binding competition
# MARK4 = target: T1, MARK4 (UniProt Q96L34)
# T1 sequence (whole entry): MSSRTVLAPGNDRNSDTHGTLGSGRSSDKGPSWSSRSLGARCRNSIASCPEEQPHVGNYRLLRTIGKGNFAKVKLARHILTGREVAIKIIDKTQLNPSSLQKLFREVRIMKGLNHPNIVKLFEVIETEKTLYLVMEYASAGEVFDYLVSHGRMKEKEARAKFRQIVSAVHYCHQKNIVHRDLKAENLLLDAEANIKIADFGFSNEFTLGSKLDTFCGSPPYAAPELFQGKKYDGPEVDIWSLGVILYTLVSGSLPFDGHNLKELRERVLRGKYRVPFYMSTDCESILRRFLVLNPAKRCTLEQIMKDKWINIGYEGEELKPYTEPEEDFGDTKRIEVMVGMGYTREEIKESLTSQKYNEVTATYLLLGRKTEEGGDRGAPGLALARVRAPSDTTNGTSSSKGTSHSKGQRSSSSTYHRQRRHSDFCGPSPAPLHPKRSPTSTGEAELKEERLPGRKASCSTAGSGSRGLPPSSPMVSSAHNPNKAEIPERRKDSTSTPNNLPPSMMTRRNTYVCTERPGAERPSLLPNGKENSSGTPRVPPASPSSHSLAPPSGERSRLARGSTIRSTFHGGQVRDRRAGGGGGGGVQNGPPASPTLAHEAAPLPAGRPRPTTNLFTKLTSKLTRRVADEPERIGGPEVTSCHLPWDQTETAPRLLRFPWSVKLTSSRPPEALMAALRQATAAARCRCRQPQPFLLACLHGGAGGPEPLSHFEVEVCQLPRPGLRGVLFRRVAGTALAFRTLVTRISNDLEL
# Summary of the method: (§1)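 To obtain pIC50, fold changes versus vehicle were fitted to logistic dose-response curves (R drc package) across biological duplicates. Protein binding to Kinobeads was quantified by TMT10 LC-MS/MS of digested bead-bound proteins. Treatments used nine concentrations with a top of 30 μM, applied to live Jurkat cells in 1:4 steps for 60 min at 37 °C before lysis, or to Jurkat lysate or a 1:1:1:1 HEK293/K-562/HepG2/placenta lysate mix in 1:5 steps for 60 min at 4 °C.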
# SRC = SRC (UniProt P12931)
# Summary of the method: as §1
# UniProt P25098 = target: T2, UniProt P25098
# T2 sequence (whole entry): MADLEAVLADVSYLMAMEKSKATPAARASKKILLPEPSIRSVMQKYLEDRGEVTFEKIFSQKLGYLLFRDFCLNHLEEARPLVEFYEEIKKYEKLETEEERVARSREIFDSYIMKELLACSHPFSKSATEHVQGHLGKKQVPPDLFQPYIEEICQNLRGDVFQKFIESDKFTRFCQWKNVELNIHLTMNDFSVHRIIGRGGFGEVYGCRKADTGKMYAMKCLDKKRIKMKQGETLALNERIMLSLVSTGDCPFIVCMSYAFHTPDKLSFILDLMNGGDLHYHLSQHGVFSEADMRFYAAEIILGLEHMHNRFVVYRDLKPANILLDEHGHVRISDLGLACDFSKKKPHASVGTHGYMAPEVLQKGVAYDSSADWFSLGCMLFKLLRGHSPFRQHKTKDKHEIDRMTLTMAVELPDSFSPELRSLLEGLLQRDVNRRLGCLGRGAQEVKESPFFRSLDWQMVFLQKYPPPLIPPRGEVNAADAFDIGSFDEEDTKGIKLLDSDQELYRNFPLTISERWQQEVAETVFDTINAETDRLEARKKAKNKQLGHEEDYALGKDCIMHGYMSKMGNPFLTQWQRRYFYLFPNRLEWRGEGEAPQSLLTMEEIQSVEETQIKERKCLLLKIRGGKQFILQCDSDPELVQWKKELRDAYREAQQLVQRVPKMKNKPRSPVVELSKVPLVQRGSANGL
# Summary of the method: as §1
# UniProt Q13233 = target: UniProt Q13233
# Summary of the method: as §1
# UniProt P49840 = target: UniProt P49840
# Summary of the method: as §1
# PDIK1L = PDIK1L (UniProt Q8N165)
# Summary of the method: as §1
# UniProt Q9Y5S2 = conditions: cell material: Lysate mix
# Summary of the method: as §1
# UniProt Q14289 = target: UniProt Q14289
# Summary of the method: as §1
# UniProt Q15208 = target: UniProt Q15208
# Summary of the method: as §1
# UniProt Q9Y5S2, sequence (Q9Y5S2 whole entry): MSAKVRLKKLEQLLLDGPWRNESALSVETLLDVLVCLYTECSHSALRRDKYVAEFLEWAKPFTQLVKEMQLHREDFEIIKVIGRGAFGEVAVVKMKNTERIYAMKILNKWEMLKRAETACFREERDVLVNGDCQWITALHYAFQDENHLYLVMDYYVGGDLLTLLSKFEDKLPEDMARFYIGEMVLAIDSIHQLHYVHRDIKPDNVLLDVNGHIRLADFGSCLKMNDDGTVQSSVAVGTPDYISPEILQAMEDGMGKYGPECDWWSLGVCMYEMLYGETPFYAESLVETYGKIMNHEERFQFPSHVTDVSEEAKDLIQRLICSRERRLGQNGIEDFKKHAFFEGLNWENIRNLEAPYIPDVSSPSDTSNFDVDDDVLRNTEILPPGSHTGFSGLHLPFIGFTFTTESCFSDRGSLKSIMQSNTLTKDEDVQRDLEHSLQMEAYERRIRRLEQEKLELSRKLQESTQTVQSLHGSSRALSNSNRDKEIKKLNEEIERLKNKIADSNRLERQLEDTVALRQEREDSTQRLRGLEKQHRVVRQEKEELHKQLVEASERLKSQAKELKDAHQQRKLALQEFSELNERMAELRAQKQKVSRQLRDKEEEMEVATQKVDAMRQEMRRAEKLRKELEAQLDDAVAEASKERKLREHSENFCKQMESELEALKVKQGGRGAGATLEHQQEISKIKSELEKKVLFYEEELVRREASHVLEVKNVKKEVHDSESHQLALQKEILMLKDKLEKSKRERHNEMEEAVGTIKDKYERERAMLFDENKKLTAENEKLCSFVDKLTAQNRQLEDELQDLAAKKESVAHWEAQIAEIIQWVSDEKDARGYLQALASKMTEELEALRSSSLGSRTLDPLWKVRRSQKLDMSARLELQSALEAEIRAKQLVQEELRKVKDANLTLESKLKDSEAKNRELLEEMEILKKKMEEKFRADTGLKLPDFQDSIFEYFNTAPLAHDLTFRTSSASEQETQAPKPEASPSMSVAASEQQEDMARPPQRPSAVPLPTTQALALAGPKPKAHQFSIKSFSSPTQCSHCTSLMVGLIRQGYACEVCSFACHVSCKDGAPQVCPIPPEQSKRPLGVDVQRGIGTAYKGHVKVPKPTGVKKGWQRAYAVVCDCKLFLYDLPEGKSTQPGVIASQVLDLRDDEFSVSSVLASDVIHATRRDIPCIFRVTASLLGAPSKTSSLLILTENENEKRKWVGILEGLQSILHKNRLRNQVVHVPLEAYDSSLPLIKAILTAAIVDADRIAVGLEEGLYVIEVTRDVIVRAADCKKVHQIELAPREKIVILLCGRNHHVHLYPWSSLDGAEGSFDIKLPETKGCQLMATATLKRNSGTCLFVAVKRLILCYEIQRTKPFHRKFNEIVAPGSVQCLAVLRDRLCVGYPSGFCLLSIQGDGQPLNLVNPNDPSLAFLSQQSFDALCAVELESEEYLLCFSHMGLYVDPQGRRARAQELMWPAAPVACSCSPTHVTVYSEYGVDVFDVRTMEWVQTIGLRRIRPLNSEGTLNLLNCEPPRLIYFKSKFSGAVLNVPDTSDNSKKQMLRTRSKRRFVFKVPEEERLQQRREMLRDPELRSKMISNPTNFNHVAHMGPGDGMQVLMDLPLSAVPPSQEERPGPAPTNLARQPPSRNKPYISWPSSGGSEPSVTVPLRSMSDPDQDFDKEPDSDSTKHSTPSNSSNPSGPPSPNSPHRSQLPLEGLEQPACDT
# SRC, sequence (P12931 whole entry, looked up): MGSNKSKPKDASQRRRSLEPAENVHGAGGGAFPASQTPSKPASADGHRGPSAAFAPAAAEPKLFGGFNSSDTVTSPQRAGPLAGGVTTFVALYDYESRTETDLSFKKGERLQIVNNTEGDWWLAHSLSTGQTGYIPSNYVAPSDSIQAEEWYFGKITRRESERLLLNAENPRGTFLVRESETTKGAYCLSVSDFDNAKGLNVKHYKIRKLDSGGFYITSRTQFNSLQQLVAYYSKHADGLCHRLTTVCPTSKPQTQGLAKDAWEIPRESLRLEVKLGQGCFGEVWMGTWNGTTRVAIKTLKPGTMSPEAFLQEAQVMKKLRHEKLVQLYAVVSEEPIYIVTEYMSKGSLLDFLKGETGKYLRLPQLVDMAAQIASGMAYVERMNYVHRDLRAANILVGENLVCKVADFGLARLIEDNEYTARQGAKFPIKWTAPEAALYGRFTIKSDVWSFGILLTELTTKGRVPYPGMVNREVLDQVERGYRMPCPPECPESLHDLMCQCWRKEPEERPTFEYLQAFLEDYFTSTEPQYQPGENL
# UniProt Q13233, sequence (Q13233 whole entry): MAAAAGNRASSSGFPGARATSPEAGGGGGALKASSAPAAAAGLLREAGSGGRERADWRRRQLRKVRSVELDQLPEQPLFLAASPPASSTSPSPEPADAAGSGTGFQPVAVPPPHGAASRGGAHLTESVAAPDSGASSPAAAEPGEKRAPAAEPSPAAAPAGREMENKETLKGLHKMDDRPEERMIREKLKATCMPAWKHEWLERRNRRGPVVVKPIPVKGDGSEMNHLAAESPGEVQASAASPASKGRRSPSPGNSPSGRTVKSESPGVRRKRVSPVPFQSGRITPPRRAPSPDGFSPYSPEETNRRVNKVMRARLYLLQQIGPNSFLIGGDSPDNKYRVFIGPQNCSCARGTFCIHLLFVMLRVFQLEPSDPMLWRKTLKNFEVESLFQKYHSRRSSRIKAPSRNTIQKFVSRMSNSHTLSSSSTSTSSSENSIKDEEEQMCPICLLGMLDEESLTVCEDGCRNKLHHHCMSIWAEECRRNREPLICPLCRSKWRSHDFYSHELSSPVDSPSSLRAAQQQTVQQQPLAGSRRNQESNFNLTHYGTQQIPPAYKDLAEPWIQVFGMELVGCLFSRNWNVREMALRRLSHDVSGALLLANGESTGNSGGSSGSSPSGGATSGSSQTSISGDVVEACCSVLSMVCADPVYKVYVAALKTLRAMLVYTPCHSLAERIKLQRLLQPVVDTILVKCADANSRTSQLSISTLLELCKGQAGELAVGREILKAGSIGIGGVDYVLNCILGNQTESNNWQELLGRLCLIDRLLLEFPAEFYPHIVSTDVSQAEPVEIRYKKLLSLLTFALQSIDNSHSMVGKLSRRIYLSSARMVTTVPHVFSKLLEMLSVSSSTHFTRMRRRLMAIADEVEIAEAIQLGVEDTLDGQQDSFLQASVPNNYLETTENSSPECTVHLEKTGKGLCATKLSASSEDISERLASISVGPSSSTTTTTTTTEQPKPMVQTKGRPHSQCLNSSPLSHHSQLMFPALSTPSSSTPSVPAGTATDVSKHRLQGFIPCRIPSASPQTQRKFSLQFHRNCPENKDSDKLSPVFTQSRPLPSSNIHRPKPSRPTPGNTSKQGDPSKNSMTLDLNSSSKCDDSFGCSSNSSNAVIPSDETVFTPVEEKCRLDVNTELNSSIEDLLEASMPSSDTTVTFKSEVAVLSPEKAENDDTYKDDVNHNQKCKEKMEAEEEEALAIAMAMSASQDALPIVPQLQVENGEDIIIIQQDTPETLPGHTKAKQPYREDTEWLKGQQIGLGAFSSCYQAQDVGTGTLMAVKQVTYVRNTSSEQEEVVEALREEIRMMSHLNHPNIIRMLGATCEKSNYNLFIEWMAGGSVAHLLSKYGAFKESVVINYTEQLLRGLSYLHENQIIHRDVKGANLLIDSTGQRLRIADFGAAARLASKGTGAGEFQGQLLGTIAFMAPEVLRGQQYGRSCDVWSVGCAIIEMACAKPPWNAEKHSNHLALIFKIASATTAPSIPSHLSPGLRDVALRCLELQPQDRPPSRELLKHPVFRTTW
# UniProt P49840, sequence (P49840 whole entry, looked up): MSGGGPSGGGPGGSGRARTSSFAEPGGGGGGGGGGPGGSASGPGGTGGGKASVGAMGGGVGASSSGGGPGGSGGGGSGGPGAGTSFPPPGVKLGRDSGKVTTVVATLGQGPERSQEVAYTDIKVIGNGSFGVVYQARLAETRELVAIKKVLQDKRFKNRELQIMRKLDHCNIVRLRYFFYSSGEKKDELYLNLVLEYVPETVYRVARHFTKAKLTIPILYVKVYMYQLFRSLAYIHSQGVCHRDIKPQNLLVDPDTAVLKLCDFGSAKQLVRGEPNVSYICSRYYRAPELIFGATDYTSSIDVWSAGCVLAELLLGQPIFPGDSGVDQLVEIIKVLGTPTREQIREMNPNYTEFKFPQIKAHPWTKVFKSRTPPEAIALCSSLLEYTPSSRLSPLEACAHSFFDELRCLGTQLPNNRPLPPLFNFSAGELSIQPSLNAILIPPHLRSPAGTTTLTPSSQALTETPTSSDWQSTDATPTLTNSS
# PDIK1L, sequence (Q8N165 whole entry): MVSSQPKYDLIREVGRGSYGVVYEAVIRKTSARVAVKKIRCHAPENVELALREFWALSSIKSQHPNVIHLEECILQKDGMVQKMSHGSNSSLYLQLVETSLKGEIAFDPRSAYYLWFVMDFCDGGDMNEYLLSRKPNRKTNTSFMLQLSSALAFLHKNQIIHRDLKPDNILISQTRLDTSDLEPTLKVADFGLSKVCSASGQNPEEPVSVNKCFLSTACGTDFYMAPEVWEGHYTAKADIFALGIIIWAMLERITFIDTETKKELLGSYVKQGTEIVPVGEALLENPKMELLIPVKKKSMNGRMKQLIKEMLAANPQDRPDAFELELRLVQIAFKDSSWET
# UniProt Q15208, sequence (Q15208 whole entry, looked up): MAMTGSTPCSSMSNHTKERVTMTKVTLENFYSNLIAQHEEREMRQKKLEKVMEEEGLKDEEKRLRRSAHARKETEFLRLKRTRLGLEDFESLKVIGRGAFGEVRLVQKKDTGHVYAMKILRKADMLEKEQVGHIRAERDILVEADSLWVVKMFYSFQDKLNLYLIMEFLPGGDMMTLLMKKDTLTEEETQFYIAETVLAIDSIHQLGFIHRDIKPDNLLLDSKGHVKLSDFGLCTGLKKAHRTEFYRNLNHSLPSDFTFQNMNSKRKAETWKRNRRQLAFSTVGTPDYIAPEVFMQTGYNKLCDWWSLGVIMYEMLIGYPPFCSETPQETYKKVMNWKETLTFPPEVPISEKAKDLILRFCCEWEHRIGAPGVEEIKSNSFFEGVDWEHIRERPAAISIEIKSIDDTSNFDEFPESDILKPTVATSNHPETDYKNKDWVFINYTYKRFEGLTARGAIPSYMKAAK
Compound,pIC50 (MARK4; cell material: Jurkat cells),pIC50 (MARK4; cell material: Jurkat lysate),pIC50 (MARK4; cell material: Lysate mix),pIC50 (SRC; cell material: Jurkat cells),pIC50 (SRC; cell material: Jurkat lysate),pIC50 (SRC; cell material: Lysate mix),pIC50 (UniProt P25098; cell material: Jurkat cells),pIC50 (UniProt P25098; cell material: Jurkat lysate),pIC50 (UniProt Q13233; cell material: Jurkat lysate),pIC50 (UniProt Q13233; cell material: Lysate mix),pIC50 (UniProt P49840; cell material: Jurkat cells),pIC50 (UniProt P49840; cell material: Jurkat lysate),pIC50 (UniProt P49840; cell material: Lysate mix),pIC50 (PDIK1L; cell material: Jurkat cells),pIC50 (PDIK1L; cell material: Jurkat lysate),pIC50 (PDIK1L; cell material: Lysate mix),pIC50 (UniProt Q9Y5S2),pIC50 (UniProt Q14289; cell material: Jurkat cells),pIC50 (UniProt Q14289; cell material: Jurkat lysate),pIC50 (UniProt Q14289; cell material: Lysate mix),pIC50 (UniProt Q15208; cell material: Jurkat cells),pIC50 (UniProt Q15208; cell material: Jurkat lysate),pIC50 (UniProt Q15208; cell material: Lysate mix),pIC50 (UniProt P25098; cell material: Lysate mix),pIC50 (UniProt Q13233; cell material: Jurkat cells)
C#CCNC(=O)c1cc(Nc2cc(C3CC3)[nH]n2)nc(N2CCN(Cc3ccc(S(=O)(=O)F)cc3)CC2)n1,5.98,< 4.52,4.81,6.41,5.68,6.24,5.69,< 4.52,< 4.52,< 4.52,5.04,< 4.52,< 4.52,6.16,5.61,5.64,< 4.52,5.98,< 4.52,< 4.52,6.44,5.44,6.2,,
C#CCNC(=O)c1cc(Nc2cc(C)[nH]n2)nc(N2CCN(Cc3ccc(S(=O)(=O)F)cc3)CC2)n1,,,< 4.52,,,5.89,,,,< 4.52,,,< 4.52,,,5.14,< 4.52,,,< 4.52,,,5,< 4.52,
Cc1cc(Nc2cc(C(=O)NCCNC(=O)OC3CC/C=C/CCC3)nc(N3CCN(Cc4ccc(S(=O)(=O)F)cc4)CC3)n2)n[nH]1 (stereo not drawn),,,< 4.52,,,4.7,,,,< 4.52,,,< 4.52,,,< 4.52,< 4.52,,,< 4.52,,,< 4.52,< 4.52,
O=C(NCCNC(=O)c1cc(Nc2cc(C3CC3)[nH]n2)nc(N2CCN(Cc3ccc(S(=O)(=O)F)cc3)CC2)n1)OC1CC/C=C/CCC1 (stereo not drawn),5.44,< 4.52,< 4.52,5.9,< 4.52,,5,< 4.52,< 4.52,< 4.52,< 4.52,< 4.52,< 4.52,5.43,< 4.52,< 4.52,< 4.52,4.98,< 4.52,< 4.52,6.33,4.8,5.11,< 4.52,< 4.52
CCNC(=O)c1cc(Nc2cc(C)[nH]n2)nc(N2CCN(Cc3ccc(S(=O)(=O)F)cc3)CC2)n1,,,< 4.52,,,6.61,,,,< 4.52,,,< 4.52,,,5.5,< 4.52,,,< 4.52,,,4.8,< 4.52,
CCNC(=O)c1cc(Nc2cc(C3CC3)[nH]n2)nc(N2CCN(Cc3ccc(S(=O)(=O)F)cc3)CC2)n1,,,4.93,,,6.14,,,,< 4.52,,,< 4.52,,,5.89,< 4.52,,,< 4.52,,,5.83,< 4.52,
